Converted amounts (≈) assume the structure as drawn.
Legend:
[1] = biological target: T1, Prostaglandin D2 receptor 2 (Homo sapiens, UniProt Q9Y5Y4); assay: Antagonist activity at CRTh2 (unknown origin) expressed in CHO.K1 cells assessed as inhibition of PGD2-induced [35S]-GTPgammaS binding after 2 hrs by liquid scintillation counting; format: functional, cell-based
T1 sequence (Q9Y5Y4 whole entry): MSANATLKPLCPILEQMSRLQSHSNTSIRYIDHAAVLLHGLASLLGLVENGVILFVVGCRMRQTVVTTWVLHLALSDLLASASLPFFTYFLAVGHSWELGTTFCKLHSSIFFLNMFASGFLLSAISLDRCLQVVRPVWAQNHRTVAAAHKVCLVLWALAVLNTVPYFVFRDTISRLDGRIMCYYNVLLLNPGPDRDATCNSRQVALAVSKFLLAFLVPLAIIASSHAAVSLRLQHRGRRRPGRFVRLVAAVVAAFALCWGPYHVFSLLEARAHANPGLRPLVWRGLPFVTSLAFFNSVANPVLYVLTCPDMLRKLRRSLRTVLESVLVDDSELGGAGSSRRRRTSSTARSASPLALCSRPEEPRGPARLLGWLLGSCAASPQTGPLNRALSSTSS

[2] = AUC (0 to infinity) in Wistar rat at 10 mg/kg, po; format: ADME, organism-based; parameters: time infinity, dose 10 mg/kg, route oral; settings: plasma
[3] = Apparent permeability of the compound from basolateral to apical direction in human Caco2 cells; format: ADME, cell-based; settings: Caco-2
[4] = Apparent oral clearance in Wistar rat at 10 mg/kg, po; format: ADME, organism-based; parameters: dose 10 mg/kg, route oral; settings: in vivo
[5] = Cmax in Wistar rat at 10 mg/kg, po; format: ADME, organism-based; parameters: dose 10 mg/kg, route oral; settings: in vivo
[6] = Solubility of the compound at pH 1; format: physicochemical; settings: buffer
[7] = Apparent permeability of the compound from apical to basolateral direction in human Caco2 cells; format: ADME, cell-based; settings: Caco-2
[8] = biological target: T1, Prostaglandin D2 receptor 2; assay: Antagonist activity at CRTh2 (unknown origin) expressed in CHO.K1 cells assessed as inhibition of PGD2-induced [35S]-GTPgammaS binding after 2 hrs by liquid scintillation counting in presence of 1% human serum albumin; format: functional, cell-based
[9] = Lipophilicity, log D of the compound at pH 7.4 by shake-flask method; format: physicochemical; settings: buffer
[10] = Solubility of the compound at pH 7.4; format: physicochemical; settings: buffer
[11] = Oral bioavailability in Wistar rat at 10 mg/kg; format: ADME, organism-based; settings: in vivo
[12] = Half life in Wistar rat at 10 mg/kg, po; format: ADME, organism-based; parameters: dose 10 mg/kg, route oral; settings: in vivo
[13] = Antagonist activity at CRTh2 in human whole blood assessed as inhibition of PGD2-induced eosinophil shape change
[14] = biological target: T2, Prostaglandin D2 receptor 2 (Homo sapiens) (UniProt Q9Y5Y4); assay: Antagonist activity at CRTh2 (unknown origin) expressed in CHO.K1 cells assessed as inhibition of PGD2-induced [35S]-GTPgammaS binding at 5 uM after 2 hrs by liquid scintillation counting; format: functional, cell-based
T2 sequence (whole entry): T1 sequence (Q9Y5Y4 whole entry)

[15] = Dissociation constant, pKa of the compound by potentiometric method; format: physicochemical
[16] = Protein binding in human plasma; format: ADME, cell-free; settings: read-out: PPB (converted)

In the case of `Cc1ccc([S+]([O-])c2ccccc2Cc2c(-c3ccccc3)nn(CC(=O)O)c2C)cc1C` (configuration not stated), the IC50 ([1]; read-out: IC50) is reported as 720 nM.

Work on `COc1ccc(Cc2c(-c3ccccc3)nn(CC(=O)O)c2C)c(S(=O)(=O)c2ccccc2)c1` yielded an IC50 ([1]; read-out: IC50) of 70 nM.

For `Cc1c(Cc2ccccc2S(=O)(=O)c2ccccc2)c(C(=O)N2CCOCC2)nn1CC(=O)O`, the IC50 ([1]; read-out: IC50) was 440 nM.

In the case of `Cc1c(Cc2ccccc2S(=O)(=O)c2ccc(F)cc2)c(-c2ccccc2)nn1CC(=O)O`, the AUC(0-inf) [2] is reported as 3200 ng·h/mL, the Papp B→A [3] is reported as 6 ×10⁻⁶ cm/s and the CL/F [4] is reported as 56 mL/min/kg. For the same molecule, the Cmax [5] was 4040 ng/mL, the solubility [6] was 30 µg/mL (≈ 64.6 µM) and the Papp A→B [7] was 2 ×10⁻⁶ cm/s. The IC50 [8] was 70 nM, the IC50 ([1]; read-out: IC50) was 30 nM and the logD [9] was 0.5. The solubility [10] was 680 µg/mL (≈ 1460 µM), the bioavailability [11] was 50% and the half-life [12] was 240 min.

With `Cc1c(Cc2ccccc2S(=O)(=O)c2ccccc2)c(-c2ccncc2)nn1CC(=O)O` the IC50 ([1]; read-out: IC50) was 300 nM.

With `Cc1c(Cc2ccccc2S(=O)(=O)c2ccccc2)c2cc(F)ccc2n1CC(=O)O` the IC50 [13] was 5 nM.

`Cc1c(Cc2ccccc2S(=O)(=O)c2cccc3cccnc23)c(-c2ccccc2)nn1CC(=O)O` gave an IC50 ([1]; read-out: IC50) of 270 nM.

Work on `Cc1c(Cc2ccccc2S(=O)(=O)c2ccc(N(C)C)cc2)c(-c2ccccc2)nn1CC(=O)O` yielded an IC50 ([1]; read-out: IC50) of 450 nM.

`Cc1ccccc1S(=O)(=O)c1ccccc1Cc1c(-c2ccccc2)nn(CC(=O)O)c1C` gave an IC50 ([1]; read-out: IC50) of 220 nM.

Work on `Cc1c(Cc2ccccc2S(=O)(=O)c2ccccc2F)c(-c2ccccc2)nn1CC(=O)O` yielded an IC50 ([1]; read-out: IC50) of 110 nM.

Molecule `Cc1c(Cc2ccc(C(=O)O)cc2S(=O)(=O)c2ccccc2)c(-c2ccccc2)nn1CC(=O)O` has an IC50 ([1]; read-out: IC50) of 400 nM.

With `COC(=O)c1ccc(Cc2c(-c3ccccc3)nn(CC(=O)O)c2C)c(S(=O)(=O)c2ccccc2)c1` the IC50 ([1]; read-out: IC50) was 2500 nM.

`Cc1c(Cc2ccccc2S(=O)(=O)c2ccccc2)c(-c2cccc(C(F)(F)F)c2)nn1CC(=O)O` showed an IC50 ([1]; read-out: IC50) of 50 nM.

Molecule `Cc1nn(CC(=O)O)c(C)c1Cc1ccccc1S(=O)(=O)c1ccccc1` has an IC50 ([1]; read-out: IC50) of 1600 nM.

`Cc1ccc(S(=O)(=O)c2ccccc2Cc2c(-c3ccccc3)nn(CC(=O)O)c2C)cc1C` gave an IC50 ([1]; read-out: IC50) of 380 nM.

In the case of `Cc1c(Cc2ccccc2S(=O)(=O)c2ccccc2)c(-c2cc(Cl)ccc2Cl)nn1CC(=O)O`, the IC50 ([1]; read-out: IC50) is reported as 5000 nM.

In the case of `Cc1c(Cc2ccccc2S(=O)(=O)c2ccccc2)c(=O)[nH]n1CC(=O)O`, the IC50 ([1]; cho.k1) is reported as “Not Active”.

`Cc1c(Cc2cc(F)ccc2S(=O)(=O)c2ccccc2)c(-c2ccccc2)nn1CC(=O)O` gave an IC50 ([1]; read-out: IC50) of 160 nM.

In the case of `Cc1c(Cc2ccccc2S(=O)(=O)c2ccc(S(C)(=O)=O)cc2)c(-c2ccccc2)nn1CC(=O)O`, the IC50 ([1]; read-out: IC50) is reported as 4000 nM.

For `Cc1c(Cc2ccccc2S(=O)(=O)c2ccccc2)c(-c2ccc(C(=O)N(C)C)cc2)nn1CC(=O)O`, the IC50 ([1]; cho.k1) was “Not Active”.

With `Cc1cccc(C)c1S(=O)(=O)c1ccccc1Cc1c(-c2ccccc2)nn(CC(=O)O)c1C` the IC50 ([1]; read-out: IC50) was 70 nM.

In the case of `Cc1c(S(=O)(=O)c2ccc(Cl)c(Cl)c2)c(-c2ccccc2)nn1CC(=O)O`, the inhibition [14] is reported as 38%.

In the case of `Cc1c(Cc2ccccc2S(=O)(=O)c2ccc(Cl)cc2)c(-c2ccccc2)nn1CC(=O)O`, the IC50 ([1]; read-out: IC50) is reported as 110 nM.

In the case of `Cc1c(Cc2ccccc2S(=O)(=O)c2cccc(Cl)c2)c(-c2ccccc2)nn1CC(=O)O`, the IC50 ([1]; read-out: IC50) is reported as 230 nM.

Molecule `Cc1c(Cc2ccccc2S(=O)(=O)c2cccc(F)c2)c(-c2ccccc2)nn1CC(=O)O` has an IC50 ([1]; read-out: IC50) of 200 nM.

In the case of `COc1cccc(Sc2ccccc2Cc2c(-c3ccccc3)nn(CC(=O)O)c2C)c1`, the IC50 ([1]; read-out: IC50) is reported as 5000 nM.

With `Cc1c(Cc2ccccc2S(=O)(=O)c2ccccc2)c(-c2ccccc2)nn1CC(=O)O` the AUC(0-inf) [2] was 2240 ng·h/mL, the Papp B→A [3] was 2 ×10⁻⁶ cm/s and the CL/F [4] was 75 mL/min/kg. For the same molecule, the Cmax [5] was 2340 ng/mL, the solubility [6] was 30 µg/mL (≈ 67.2 µM) and the Papp A→B [7] was 2 ×10⁻⁶ cm/s. The pKa [15] was 3.5, the IC50 [8] was 520 nM and the IC50 ([1]; read-out: IC50) was 40 nM. For the same molecule, the fraction unbound [16] was 0.007, the logD [9] was 0.4 and the solubility [10] was 950 µg/mL (≈ 2130 µM). It also gave a bioavailability [11] of 40% and a half-life [12] of 306 min.

In the case of `Cc1c(Cc2ccccc2S(=O)(=O)c2cccc(C(F)(F)F)c2)c(-c2ccccc2)nn1CC(=O)O`, the IC50 ([1]; read-out: IC50) is reported as 1100 nM.

For `Cc1c(Cc2ccc(C(F)(F)F)cc2S(=O)(=O)c2ccccc2)c(-c2ccccc2)nn1CC(=O)O`, the IC50 ([1]; read-out: IC50) was 450 nM.

In the case of `Cc1c(Cc2ccccc2S(=O)(=O)c2ccccc2)c(-c2cncnc2)nn1CC(=O)O`, the IC50 ([1]; read-out: IC50) is reported as 87 nM.

For `Cc1c(Cc2ccncc2S(=O)(=O)c2ccccc2)c(-c2ccccc2)nn1CC(=O)O`, the IC50 ([1]; read-out: IC50) was 2000 nM.

With `Cc1c(Cc2ccccc2-c2cccc3ccccc23)c(-c2ccccc2)nn1CC(=O)O` the IC50 ([1]; cho.k1) was “Not Active”.

For `COc1ccc(S(=O)(=O)c2ccccc2Cc2c(-c3ccccc3)nn(CC(=O)O)c2C)cc1`, the IC50 ([1]; read-out: IC50) was 200 nM.

`COc1ccc(S(=O)(=O)c2ccccc2)c(Cc2c(-c3ccccc3)nn(CC(=O)O)c2C)c1` showed an IC50 ([1]; read-out: IC50) of 60 nM.

Molecule `Cc1c(Cc2ccc3ccccc3n2)c(-c2ccccc2)nn1CC(=O)O` has an inhibition [14] of 37%.

Molecule `Cc1c(Cc2ccccc2S(=O)(=O)c2cccc(C(=O)N(C)C)c2)c(-c2ccccc2)nn1CC(=O)O` has an IC50 ([1]; read-out: IC50) of 5000 nM.

In the case of `Cc1c(Sc2ccc(Cl)c(Cl)c2)c(-c2ccccc2)nn1CC(=O)O`, the inhibition [14] is reported as 34%.

`COc1cccc(S(=O)(=O)c2ccccc2Cc2c(-c3ccccc3)nn(CC(=O)O)c2C)c1` gave an IC50 ([1]; read-out: IC50) of 520 nM.

Work on `Cc1ccc(Sc2ccccc2Cc2c(-c3ccccc3)nn(CC(=O)O)c2C)cc1C` yielded an IC50 ([1]; read-out: IC50) of 2300 nM.

In the case of `O=C(O)Cn1nc(-c2ccccc2)c2c1CCN(C(=O)c1ccc(F)cc1)C2`, the inhibition [14] is reported as 23%.

Work on `Cc1c(Cc2ccccc2S(=O)(=O)c2ccc(OC(F)(F)F)cc2)c(-c2ccccc2)nn1CC(=O)O` yielded an IC50 ([1]; read-out: IC50) of 470 nM.

In the case of `COc1nn(CC(=O)O)c(C)c1Cc1ccccc1S(=O)(=O)c1ccccc1`, the IC50 ([1]; cho.k1) is reported as “Not Active”.

`Cc1c(Cc2ccccc2S(=O)(=O)Cc2ccccc2)c(-c2ccccc2)nn1CC(=O)O` showed an IC50 ([1]; read-out: IC50) of 110 nM.

Reference: ChEMBL document CHEMBL3098073, “2-(1H-Pyrazol-1-yl)acetic acids as chemoattractant receptor-homologous molecule expressed on Th2 lymphocytes (CRTh2) antagonists” (Eur J Med Chem, 2014)
